Columns and labels:
KRas G12D = KRas G12D (Homo sapiens, UniProt P01116, G12D); assay: biochemical;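 also: TR-FRET displacement binding assay on KRas, read after a one-hour incubation at room temperature, IC50 fitted from percent-of-control values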
Description: (§5) The ability of a compound to bind to KRas was measured using a TR-FRET displacement assay. […] After a 60-minute incubation at room temperature, the reaction was measured using a BMG LABTECH CLARIO star Plus via TR-FRET. […] The POC values were fit to a 4-parameter IC50 equation and the IC50 value reported.

KRas G12V = KRas G12V (Homo sapiens, UniProt P01116, G12V); assay: biochemical;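 also: KRas binding measured by TR-FRET displacement at room temperature, IC50 fitted from percent of control values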
Description: as §5

KRas G12R = KRas G12R (Homo sapiens, UniProt P01116, G12R); assay: biochemical;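 also: TR-FRET displacement assay of compound binding to KRas, read after one hour at room temperature, potency from a four-parameter fit of percent-of-control values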
Description: as §5

KRas G12C = KRas G12C (Homo sapiens, UniProt P01116, G12C); assay: biochemical;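 also: binding to KRas assessed by TR-FRET displacement after one hour incubation at room temperature, potency fitted from percent-of-control values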
Description: as §5

KRas WT = KRas WT (Homo sapiens, UniProt P01116); assay: biochemical;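 also: binding to KRas read as TR-FRET displacement after a one-hour room-temperature incubation, IC50 derived from percent-of-control values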
Description: as §5

pERK in MKN1 cells = assay: Inhibition of KRas phosphorylation of ERK (Cisbio HTRF pERK assay); details: Homo sapiens, MKN-1, 3 h, read-out: Inhibition (HTRF IC50) of KRas-mediated Phosphorylation of ERK, MKN1
pERK in PSN1 cells = assay: as above; details: Homo sapiens, PSN1, 3 h, read-out: Inhibition (HTRF IC50) of KRas-mediated Phosphorylation of ERK, PSN1
Description: (§6) To harvest cells from flask using 0.05% Trypsin/EDTA solution. Add 10 mL of media to stop trypsinizing. Pipette the cells into a conical bottom 50 mL centrifuge tube and centrifuge 5 min×1000 rpm. • 2. Re-suspend the cell pellet in media, take a cell count, and then adjust the cell density using fresh media. • 3. Seed 6,000 cells into cell culture plate with 50 μL media. […] Incubate cell plate overnight in a 37° C., 5% CO2 incubator. • Compound titrations • 1. Use Tecan to complete the compound addition. Compounds start from 10 uM top, 3-fold dilution, and 10 doses. The final DMSO concentration is 0.8%. Dispensed 0.2 uM Trametinib as Min control. • 2. Incubate cell plate for 3 hrs in the incubator. • Detection with cisbio pERK HTRF kit • 1. […] At the end of the compound treatment, flick-off the media. • 3. Add 35 μL of lysis buffer per well using a Multidrop Combi. Then place on a plate agitator shaking at 300 rpm at 4° C. for 40 mins. • 4. Make up the HTRF antibody buffer. For each assay plate, mix 50 μL of d2-conjugate antibody with 950 μL of detection buffer. Similarly, mix 50 μL of Cryptate antibody with 950 μL of detection buffer. Then mix the two diluted antibodies together. • 5. Dispense 3.4 μL the antibody buffer to wells of an empty assay plate. Seal the plate and centrifuge plate 30 sec×1000 rpm. • 6. At the end of the 4° C. lysis, centrifuge the lysate plates 3 mins×1500 rpm. • 7. Use the Bravo to transfer 13.6 μL of lysate from cell culture plate to assay plate.
(§7) Then incubate assay plate for 2 hrs at room temperature. […] At the end of incubation, read plate on the Envision after centrifuging plate 30 sec× • 1000 rpm.

pERK in ASPC1 cells = assay: as above; details: Homo sapiens, ASPC1, read-out: Inhibition (HTRF IC50) of KRas-mediated Phosphorylation of ERK, AsPC-1
Description: as §6, §7

pERK in H727 cells = assay: as above; details: Homo sapiens, NCI-H727, read-out: Inhibition (HTRF IC50) of KRas-mediated Phosphorylation of ERK, H727
pERK in H460 cells = assay: as above; details: Homo sapiens, NCI-H460, read-out: Inhibition (HTRF IC50) of KRas-mediated Phosphorylation of ERK, H460
pERK in HCT116 cells = assay: as above; details: Homo sapiens, HCT-116, read-out: Inhibition (HTRF IC50) of KRas-mediated Phosphorylation of ERK, HCT116
KRas G12A = KRas G12A (Homo sapiens, UniProt P01116, G12A); assay: biochemical;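 also: binding to KRas measured by TR-FRET displacement after one hour at room temperature, IC50 from a four-parameter fit of percent-of-control values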
Description: as §5

KRas G12S = KRas G12S (Homo sapiens, UniProt P01116, G12S); assay: biochemical;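 also: TR-FRET displacement binding to KRas, read after one hour incubation at room temperature, IC50 from four-parameter fit of percent of control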
Description: as §5

[1] = tested on: phospho-ERK in AsPC-1 (G12D) cells; assay: Inhibition of KRas-mediated phosphorylation of ERK (in-cell western); assay type: cell-based; details: Homo sapiens, ASPC1, 3 h, 3 hours compound, phospho-ERK normalized to GAPDH
Description: (§1) Diluted compounds were then added in a final concentration of 0.5% DMSO. After 3 hours, 50 μL of 4.0% formaldehyde was added and the plates incubated at room temperature for 20 minutes. The plates were then dumped and permeabilized with 150 μL of ice cold 100% methanol for 10 minutes.
(§2) The amount of phospho-ERK was determined using an antibody specific for the phosphorylated form of ERK and compared to the amount of GAPDH. […] The plates were incubated overnight at 4° C. The plates were washed 3× with 150 uL PBS+0.1% Tween 20.
(§3) The plates were washed 3× with 150 uL PBS+0.1% Tween 20. Plates were imaged dry on a Li-COR Odyssey CLX plate reader.
(§4) The phospho-ERK (Thr202/Tyr204) signal was normalized to the GAPDH signal for each well and percent of DMSO control values were calculated. IC50 values were generated using a 4-parameter fit of the dose response curve.

[2] = tested on: phospho-ERK in NCI-H460 (Q61H) cells; assay: as above; assay type: cell-based; details: Homo sapiens, NCI-H460, 3 h, 3 hours compound, phospho-ERK normalized to GAPDH
Description: as §1, §2, §3, §4

[3] = tested on: phospho-ERK in NCI-H727 (G12V) cells; assay: as above; assay type: cell-based; details: Homo sapiens, NCI-H727, 3 h, 3 hours compound, phospho-ERK normalized to GAPDH
Description: as §1, §2, §3, §4

Sequence of KRas G12R (P01116 1-169 isoform P01116-2 G12R): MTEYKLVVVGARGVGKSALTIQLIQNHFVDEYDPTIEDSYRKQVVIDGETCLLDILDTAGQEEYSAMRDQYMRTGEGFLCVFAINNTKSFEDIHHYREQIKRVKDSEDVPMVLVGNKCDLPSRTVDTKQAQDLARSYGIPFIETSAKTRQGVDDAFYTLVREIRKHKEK
Sequence of KRas G12V (P01116 1-169 isoform P01116-2 G12V): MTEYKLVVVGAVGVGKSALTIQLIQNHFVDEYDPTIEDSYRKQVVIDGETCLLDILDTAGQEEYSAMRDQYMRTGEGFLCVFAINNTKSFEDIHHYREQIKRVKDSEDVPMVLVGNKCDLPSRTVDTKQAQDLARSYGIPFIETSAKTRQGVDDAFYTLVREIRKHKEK
Sequence of KRas G12S (P01116 1-169 isoform P01116-2 G12S): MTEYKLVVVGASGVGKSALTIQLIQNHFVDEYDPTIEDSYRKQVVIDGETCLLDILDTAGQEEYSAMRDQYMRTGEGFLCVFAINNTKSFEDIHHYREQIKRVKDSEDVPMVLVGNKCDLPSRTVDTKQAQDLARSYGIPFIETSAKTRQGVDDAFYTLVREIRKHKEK
Sequence of KRas WT (P01116 1-169 isoform P01116-2): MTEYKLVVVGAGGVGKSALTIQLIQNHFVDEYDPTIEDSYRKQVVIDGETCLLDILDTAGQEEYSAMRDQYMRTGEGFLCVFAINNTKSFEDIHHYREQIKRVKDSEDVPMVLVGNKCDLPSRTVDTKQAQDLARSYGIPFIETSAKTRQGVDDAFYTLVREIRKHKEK
Sequence of KRas G12D (P01116 1-169 isoform P01116-2 G12D): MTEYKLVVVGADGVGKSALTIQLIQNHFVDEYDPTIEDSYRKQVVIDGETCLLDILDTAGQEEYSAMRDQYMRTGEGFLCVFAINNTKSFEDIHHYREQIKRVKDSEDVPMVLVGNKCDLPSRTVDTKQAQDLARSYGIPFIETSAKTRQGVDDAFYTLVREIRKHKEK
Sequence of KRas G12C (P01116 1-169 isoform P01116-2 G12C): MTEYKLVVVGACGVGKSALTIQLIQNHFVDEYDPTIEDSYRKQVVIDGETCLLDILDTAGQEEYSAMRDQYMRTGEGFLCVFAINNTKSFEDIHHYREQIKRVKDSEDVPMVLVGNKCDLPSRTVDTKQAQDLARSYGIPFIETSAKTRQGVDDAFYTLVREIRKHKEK
Sequence of KRas G12A (P01116 1-169 isoform P01116-2 G12A): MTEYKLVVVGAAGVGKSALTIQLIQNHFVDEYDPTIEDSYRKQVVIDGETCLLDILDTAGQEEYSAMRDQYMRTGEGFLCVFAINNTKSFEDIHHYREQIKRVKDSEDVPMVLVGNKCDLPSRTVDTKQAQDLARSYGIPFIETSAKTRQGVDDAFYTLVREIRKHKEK

SMILES | IC50 (KRas G12D) | IC50 (KRas G12V) | IC50 (KRas G12R) | IC50 (KRas G12C) | IC50 (KRas WT) | IC50 (pERK in MKN1 cells) | IC50 (pERK in PSN1 cells) | IC50 (pERK in ASPC1 cells) | IC50 (pERK in H727 cells) | IC50 (pERK in H460 cells) | IC50 (pERK in HCT116 cells) | IC50 (KRas G12A) | IC50 (KRas G12S) | IC50 [1] | IC50 [2] | IC50 [3]
O=S1(=O)NCC2(CCCN(c3nc(OC[C@@]45CCCN4C[C@H](F)C5)nc4c(F)c(-c5cc(O)cc6ccc(F)c(Cl)c56)ncc34)C2)N1 (stereo partly drawn) [Example 417, 7-(7-(8-chloro-7-fluoro-3-hydroxynaphthalen-1-yl)-8-fluoro-2-(((2R,7aS)-2-fluorohexahydro-1H-pyrrolizin-7a-yl)methoxy)pyrido[4,3-d]pyrimidin-4-yl)-2-thia-1,3,7-triazaspiro[4.5]decan 2,2-dioxide] | ≤ 2 nM | ≤ 2 nM | ≤ 2 nM | ≤ 2 nM | ≤ 2 nM | 20 nM | 110 nM | 182 nM | 57 nM | 63 nM | 79 nM | – | – | – | – | –
CCc1c(F)ccc2cc(O)cc(-c3ncc4c(N5C[C@@H]6C[C@H](C5)[C@H](O)C6)nc(OCC5(CN6CCCC6)CC5)nc4c3F)c12 [Example 320, (1R,5R,6R)-3-(7-(8-ethyl-7-fluoro-3-hydroxynaphthalen-1-yl)-8-fluoro-2-((1-(pyrrolidin-1-ylmethyl)cyclopropyl)methoxy)pyrido[4,3-d]pyrimidin-4-yl)-3-azabicyclo[3,2,1]octan-6-ol] | 3 nM | ≤ 2 nM | 3 nM | ≤ 2 nM | ≤ 2 nM | 10 nM | 5180 nM | 115 nM | 82 nM | 100 nM | 65 nM | ≤ 2 nM | ≤ 2 nM | – | – | –
C#Cc1c(F)ccc2cc(O)cc(-c3ncc4c(N5CCC[C@](C)(O)C5)nc(OC[C@@]56CCCN5C[C@H](F)C6)nc4c3F)c12 [Example 10] | ≤ 2 nM | ≤ 2 nM | 3 nM | – | – | 13 nM | 3340 nM | – | – | – | – | – | – | 297 nM | – | –
CCc1c(F)ccc2cc(O)cc(-c3ncc4c(N5CCCC6(C5)CS(=O)(=O)C6)nc(OC[C@@]56CCCN5C[C@H](F)C6)nc4c3F)c12 [Example 481, 6-(7-(8-ethyl-7-fluoro-3-hydroxynaphthalen-1-yl)-8-fluoro-2-(((2R,7aS)-2-fluorohexahydro-1H-pyrrolizin-7a-yl)methoxy)pyrido[4,3-d]pyrimidin-4-yl)-2-thia-6-azaspiro[3.5]nonane 2,2-dioxide] | 4 nM | 4 nM | 7 nM | – | – | 49 nM | 5410 nM | 387 nM | 643 nM | 827 nM | 3150 nM | – | – | – | – | –
CCc1c(F)ccc2cc(O)cc(-c3ncc4c(NCC5CNS(=O)(=O)N5)nc(OC[C@@]56CCCN5C[C@H](F)C6)nc4c3F)c12 (stereo partly drawn) [Example 494, 3-(((7-(8-ethyl-7-fluoro-3-hydroxynaphthalen-1-yl)-8-fluoro-2-(((2R,7aS)-2-fluorohexahydro-1H-pyrrolizin-7a-yl)methoxy)pyrido[4,3-d]pyrimidin-4-yl)amino)methyl)-1,2,5-thiadiazolidine 1,1-dioxide] | 3 nM | ≤ 2 nM | ≤ 2 nM | – | – | 135 nM | ≥ 10000 nM | 354 nM | 795 nM | 982 nM | 2170 nM | – | – | – | – | –
OCC1COCCN(c2nc(OCC34CCCN3CCC4)nc3c(F)c(-c4cc(O)cc5ccc(F)c(F)c45)ncc23)C1 (stereo not drawn) [Example 457, 5,6-difluoro-4-(8-fluoro-2-((hexahydro-1H-pyrrolizin-7a-yl)methoxy)-4-(6-(hydroxymethyl)-1,4-oxazepan-4-yl)pyrido[4,3-d]pyrimidin-7-yl)naphthalen-2-ol] | 31 nM | 6 nM | 10 nM | – | – | – | – | – | – | – | – | – | – | – | 9410 nM | 3950 nM
CCc1c(F)ccc2cc(O)cc(-c3ncc4c(N5CCCC6(CC(=O)NC6=O)C5)nc(OC[C@@]56CCCN5C[C@H](F)C6)nc4c3F)c12 (stereo partly drawn) [Example 318, 7-(7-(8-ethyl-7-fluoro-3-hydroxynaphthalen-1-yl)-8-fluoro-2-(((2R,7aS)-2-fluorohexahydro-1H-pyrrolizin-7a-yl)methoxy)pyrido[4,3-d]pyrimidin-4-yl)-2,7-diazaspiro[4.5]decane-1,3-dione] | ≤ 2 nM | ≤ 2 nM | ≤ 2 nM | ≤ 2 nM | ≤ 2 nM | 13 nM | 877 nM | 133 nM | 69 nM | 65 nM | 60 nM | ≤ 2 nM | ≤ 2 nM | – | – | –
Oc1cc(-c2ncc3c(N4CC5CC(O)CC4C5)nc(OC[C@@]45CCCN4C[C@H](F)C5)nc3c2F)c2c(Cl)c(F)ccc2c1 (stereo partly drawn) [Example 422, 6-(7-(8-chloro-7-fluoro-3-hydroxynaphthalen-1-yl)-8-fluoro-2-(((2R,7aS)-2-fluorohexahydro-1H-pyrrolizin-7a-yl)methoxy)pyrido[4,3-d]pyrimidin-4-yl)-6-azabicyclo[3.2.1]octan-3-ol] | 7 nM | ≤ 2 nM | 5 nM | – | – | 26 nM | 1810 nM | 430 nM | 112 nM | 303 nM | 539 nM | – | – | – | – | –
O=C1C[C@]2(CCCN(c3nc(OC[C@@]45CCCN4C[C@H](F)C5)nc4c(F)c(-c5cc(O)cc6ccc(F)c(Cl)c56)ncc34)C2)N1 [Example 416, (S)-6-(7-(8-chloro-7-fluoro-3-hydroxynaphthalen-1-yl)-8-fluoro-2-(((2R,7aS)-2-fluorohexahydro-1H-pyrrolizin-7a-yl)methoxy)pyrido[4,3-d]pyrimidin-4-yl)-1,6-diazaspiro[3.5]nonan-2-one] | ≤ 2 nM | ≤ 2 nM | ≤ 2 nM | – | – | 3 nM | 1300 nM | 141 nM | 83 nM | 283 nM | 2190 nM | – | – | – | – | –
CCc1c(F)ccc2cc(O)cc(-c3ncc4c(N5CCCn6nc(C(=O)NCCO)cc6C5)nc(OC[C@@]56CCCN5C[C@H](F)C6)nc4c3F)c12 [Example 506, 5-(7-(8-ethyl-7-fluoro-3-hydroxynaphthalen-1-yl)-8-fluoro-2-(((2R,7aS)-2-fluorotetrahydro-1H-pyrrolizin-7a(5H)-yl)methoxy)pyrido[4,3-d]pyrimidin-4-yl)-N-(2-hydroxyethyl)-5,6,7,8-tetrahydro-4H-pyrazolo[1,5-a][1,4]diazepine-2-carboxamide] | ≤ 2 nM | ≤ 2 nM | ≤ 2 nM | – | – | 703 nM | ≥ 10000 nM | 302 nM | 2220 nM | 8910 nM | ≥ 10000 nM | – | – | – | – | –
CCc1cccc2cc3[nH]ncc3c(-c3ncc4c(N5CCC[C@@](C)(O)C5)nc(OC[C@@]56CCCN5C[C@H](F)C6)nc4c3F)c12 [Example 473, (3R)-1-(7-(5-ethyl-1H-benzo[f]indazol-4-yl)-8-fluoro-2-(((2R,7aS)-2-fluorohexahydro-1H-pyrrolizin-7a-yl)methoxy)pyrido[4,3-d]pyrimidin-4-yl)-3-methylpiperidin-3-ol] | 11 nM | 8 nM | 14 nM | 9 nM | 10 nM | – | – | – | – | – | – | 8 nM | 9 nM | – | 325 nM | 320 nM

Source: patent US12398154B2, “Azaquinazoline pan-KRas inhibitors” (Mirati Therapeutics, Inc., priority 2020, dated 2025)
